# Literature values in patent US8535946B2, “Biomarker to measure drug efficacy in enteropathic disease” (The Board of Trustees of the Leland Stanford Junior …, priority 2007, dated 2013).
# Conditions: humans
smiles,measurement,value
Cc1ncc2n1-c1ccc(Cl)cc1C(c1ccccc1F)=NC2 [midazolam],dose excreted unchanged in the urine,less than 1%
